Assay results taken from publication PMC8982324 (Journal of Extracellular Vesicles, 2022).
No end group written: not given here.

Columns and labels:
HEK293T‐eGFP cells = assay type: cell-based
full length NMT1 enzyme = target: T1, full length NMT1 enzyme (Homo sapiens, UniProt P30419); test: NMT1 activity assay; conditions: synthesized octapeptide; average of three experiments
T1 sequence (P30419 1-496): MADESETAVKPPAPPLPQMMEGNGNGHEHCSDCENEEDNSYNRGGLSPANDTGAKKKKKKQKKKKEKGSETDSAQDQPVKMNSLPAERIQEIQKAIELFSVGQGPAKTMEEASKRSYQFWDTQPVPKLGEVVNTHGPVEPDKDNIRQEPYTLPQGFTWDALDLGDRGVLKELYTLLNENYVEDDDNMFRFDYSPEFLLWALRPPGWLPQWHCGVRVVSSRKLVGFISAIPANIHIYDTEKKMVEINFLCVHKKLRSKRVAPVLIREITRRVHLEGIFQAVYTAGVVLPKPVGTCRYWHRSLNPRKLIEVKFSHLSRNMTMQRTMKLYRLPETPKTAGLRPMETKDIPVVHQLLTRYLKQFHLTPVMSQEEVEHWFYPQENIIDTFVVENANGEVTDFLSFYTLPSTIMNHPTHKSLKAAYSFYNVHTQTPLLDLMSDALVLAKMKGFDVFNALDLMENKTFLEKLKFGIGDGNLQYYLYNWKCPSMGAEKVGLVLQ

Row | Compound | effect on Cas9 and VSV‐G protein levels in recipient cells (HEK293T‐eGFP cells) | substrate of NMT1 enzyme (full length NMT1 enzyme)
1 | CCN(CC)CCCC(C)Nc1ccnc2cc(Cl)ccc12 (centres unmarked) [chloroquine] | greatly increased | 
2 | ASNKSKPK [SRC(G2A)] |  | not a substrate of NMT1
